Laboratory results: ChEMBL document CHEMBL1131022, “Synthesis and biological activity of a novel methylamine-bridged enkephalin analogue (MABE): a new route to cyclic peptides and peptidomimetics” (J Med Chem, 1998)

Key:
Rattus norvegicus = assay: In vivo efficacy was measured using thermal escape assay; format: functional
Mu-type opioid receptor = Mu-type opioid receptor (Homo sapiens, UniProt P35372); assay: In vitro potency was measured against human Opioid receptor mu 1
[1] = target: Kappa-type opioid receptor (Homo sapiens, UniProt P41145); assay: In vitro potency was measured against human Opioid receptor kappa 1
[2] = target: Delta-type opioid receptor (Homo sapiens, UniProt P41143); assay: In vitro potency was measured against human Opioid receptor delta 1
Sequence of Delta-type opioid receptor (P41143 whole entry): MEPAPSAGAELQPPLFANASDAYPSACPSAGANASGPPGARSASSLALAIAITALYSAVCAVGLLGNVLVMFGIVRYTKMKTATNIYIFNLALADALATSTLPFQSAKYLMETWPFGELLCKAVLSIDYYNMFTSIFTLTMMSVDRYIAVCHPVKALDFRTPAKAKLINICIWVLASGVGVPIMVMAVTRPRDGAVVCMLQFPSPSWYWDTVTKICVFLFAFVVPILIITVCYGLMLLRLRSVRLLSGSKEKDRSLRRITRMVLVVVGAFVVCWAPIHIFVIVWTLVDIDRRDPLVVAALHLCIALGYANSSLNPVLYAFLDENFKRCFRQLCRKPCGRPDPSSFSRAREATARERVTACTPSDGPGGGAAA

Sequence of Kappa-type opioid receptor (P41145 whole entry): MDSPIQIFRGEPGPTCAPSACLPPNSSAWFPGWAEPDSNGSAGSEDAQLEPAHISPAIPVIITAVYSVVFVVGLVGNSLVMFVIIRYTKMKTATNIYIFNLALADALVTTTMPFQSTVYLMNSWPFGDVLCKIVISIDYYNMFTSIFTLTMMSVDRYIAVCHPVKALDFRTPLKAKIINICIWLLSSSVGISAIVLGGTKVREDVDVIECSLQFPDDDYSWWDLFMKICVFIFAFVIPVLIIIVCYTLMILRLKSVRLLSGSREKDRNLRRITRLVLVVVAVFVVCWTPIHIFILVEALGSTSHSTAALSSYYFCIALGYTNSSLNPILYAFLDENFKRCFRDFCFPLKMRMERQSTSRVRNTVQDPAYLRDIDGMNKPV
Sequence of Mu-type opioid receptor (P35372 whole entry): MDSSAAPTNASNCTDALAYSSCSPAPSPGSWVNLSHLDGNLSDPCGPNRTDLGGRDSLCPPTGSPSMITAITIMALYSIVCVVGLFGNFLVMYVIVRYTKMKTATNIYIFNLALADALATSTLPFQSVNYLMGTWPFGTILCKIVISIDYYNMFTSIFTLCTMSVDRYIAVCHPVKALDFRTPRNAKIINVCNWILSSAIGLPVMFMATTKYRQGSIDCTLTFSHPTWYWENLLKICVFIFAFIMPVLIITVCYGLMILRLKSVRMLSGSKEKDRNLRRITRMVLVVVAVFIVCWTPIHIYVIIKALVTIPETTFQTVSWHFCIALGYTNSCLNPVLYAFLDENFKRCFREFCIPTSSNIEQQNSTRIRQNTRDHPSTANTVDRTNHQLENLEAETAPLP

SMILES | ED50 (Rattus norvegicus) [µg] | Ki (Mu-type opioid receptor) [nM] | Ki [1] [nM] | Ki [2] [nM]
CN1CCNC(=O)[C@H](Cc2ccccc2)NC(=O)CNC(=O)[C@H](NC(=O)[C@@H](N)Cc2ccc(O)cc2)C1 | 0.027 | 1.6 | 340 | 2.1
CC1(C)SSC(C)(C)C(NC(=O)[C@@H](N)Cc2ccc(O)cc2)C(=O)NCC(=O)N[C@@H](Cc2ccccc2)C(=O)NC1C(=O)O (single isomer, unassigned) | 54 | – | – | –
C[C@@H](NC(=O)[C@@H](N)Cc1ccc(O)cc1)C(=O)NCC(=O)N(C)[C@@H](Cc1ccccc1)C(=O)NCCO [DAMGO] | 0.14 | – | – | –
CN1CC[C@]23c4c5ccc(O)c4O[C@H]2[C@@H](O)C=C[C@H]3[C@H]1C5 [MORPHINE] | 2.4 | – | – | –
